From ChEMBL document CHEMBL1201862, “PubChem BioAssay data set” (2004)
Activity calls are given as the source filed them.

How the values were obtained:
Insulin-degrading enzyme [1] = biological target: T1, Insulin-degrading enzyme (Homo sapiens, UniProt P14735); assay: activators of recombinant IDE enzyme, dose response, counter-screen for IDE activator project, biochemical, fluorescence polarization (AID 588681)
T1 sequence (P14735 whole entry): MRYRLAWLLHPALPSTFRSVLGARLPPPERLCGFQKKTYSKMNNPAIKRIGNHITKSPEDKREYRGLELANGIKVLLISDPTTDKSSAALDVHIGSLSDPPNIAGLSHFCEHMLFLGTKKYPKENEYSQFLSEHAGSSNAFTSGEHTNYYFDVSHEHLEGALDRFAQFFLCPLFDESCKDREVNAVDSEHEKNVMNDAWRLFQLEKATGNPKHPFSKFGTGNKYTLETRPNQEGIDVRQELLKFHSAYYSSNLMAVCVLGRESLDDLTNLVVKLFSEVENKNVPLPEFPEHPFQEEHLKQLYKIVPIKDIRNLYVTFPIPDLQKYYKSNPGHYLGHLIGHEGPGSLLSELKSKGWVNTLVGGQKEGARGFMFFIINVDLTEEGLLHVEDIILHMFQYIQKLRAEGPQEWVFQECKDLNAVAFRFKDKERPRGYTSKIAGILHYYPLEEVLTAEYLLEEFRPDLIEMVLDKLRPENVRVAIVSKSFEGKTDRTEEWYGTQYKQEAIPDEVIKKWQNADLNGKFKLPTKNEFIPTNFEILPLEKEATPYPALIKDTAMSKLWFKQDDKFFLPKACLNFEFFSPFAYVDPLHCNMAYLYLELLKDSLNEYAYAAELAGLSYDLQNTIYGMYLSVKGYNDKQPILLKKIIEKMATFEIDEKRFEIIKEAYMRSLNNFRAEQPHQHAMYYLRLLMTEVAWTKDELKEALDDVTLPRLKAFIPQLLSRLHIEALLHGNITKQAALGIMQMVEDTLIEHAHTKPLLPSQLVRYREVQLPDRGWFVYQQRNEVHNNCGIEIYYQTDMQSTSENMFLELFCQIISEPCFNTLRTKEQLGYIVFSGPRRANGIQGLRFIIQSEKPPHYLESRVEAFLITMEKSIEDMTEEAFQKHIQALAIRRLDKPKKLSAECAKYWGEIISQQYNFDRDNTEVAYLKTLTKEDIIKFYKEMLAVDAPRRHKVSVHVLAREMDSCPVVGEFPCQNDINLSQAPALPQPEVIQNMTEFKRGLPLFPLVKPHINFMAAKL

Insulin-degrading enzyme [2] = biological target: T1, Insulin-degrading enzyme; assay: activators of endogenous IDE in HEK cells, dose response, cell-based, fluorescence polarization (AID 588439); type: functional
HEK293 [3] = assay: HEK cell cytotoxicity by LDH release, dose response, cytotoxicity control for IDE activator project, fluorescence, HEK cells (AID 588440); type: functional, cell-based; conditions: Homo sapiens;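 note: cytotoxicity by LDH release measuring loss of membrane integrity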
HEK293 [4] = assay: optical interference in Abeta FP readout, dose response, artefact control for IDE activator project, biochemical, fluorescence polarization (AID 588442); type: functional, cell-based; conditions: Homo sapiens
[5] = biological target: T2, Sentrin-specific protease 8 (Homo sapiens, UniProt Q96LD8); assay: SENP8 protease inhibitors, SAR follow-up, biochemical, luminescence (AID 504501); type: functional
T2 sequence (Q96LD8 whole entry): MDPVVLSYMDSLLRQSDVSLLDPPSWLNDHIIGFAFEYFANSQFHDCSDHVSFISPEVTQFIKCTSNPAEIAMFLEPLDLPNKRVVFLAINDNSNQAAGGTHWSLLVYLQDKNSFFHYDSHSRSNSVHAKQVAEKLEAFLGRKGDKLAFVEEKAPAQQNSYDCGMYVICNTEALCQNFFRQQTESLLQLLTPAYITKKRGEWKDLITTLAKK

Caspase-3 = biological target: T3, Caspase-3 (Homo sapiens, UniProt P42574); assay: SAR Analysis of small molecule inhibitors of Sentrin-specific proteases (SENPs) using a Caspase-3 Selectivity assay. [Related pubchem assays (depositor defined):AID2540, AID2599, AID434973, AID489001]; type: functional
T3 sequence (P42574 whole entry): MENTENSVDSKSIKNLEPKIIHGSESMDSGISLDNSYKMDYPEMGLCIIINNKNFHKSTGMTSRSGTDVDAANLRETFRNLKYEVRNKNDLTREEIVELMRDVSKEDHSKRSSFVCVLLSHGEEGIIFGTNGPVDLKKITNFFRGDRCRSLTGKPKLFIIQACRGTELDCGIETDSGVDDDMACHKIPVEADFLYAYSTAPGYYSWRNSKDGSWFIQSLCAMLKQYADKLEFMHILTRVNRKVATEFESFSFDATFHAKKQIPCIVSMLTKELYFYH

[6] = biological target: T4, Sentrin-specific protease 6 (Homo sapiens, UniProt Q9GZR1); assay: SAR Analysis of small molecule inhibitors of Sentrin-specific protease 6 (SENP6) using a Luminescent assay. [Related pubchem assays (depositor defined):AID2582, AID2599]; type: functional
T4 sequence (Q9GZR1 whole entry): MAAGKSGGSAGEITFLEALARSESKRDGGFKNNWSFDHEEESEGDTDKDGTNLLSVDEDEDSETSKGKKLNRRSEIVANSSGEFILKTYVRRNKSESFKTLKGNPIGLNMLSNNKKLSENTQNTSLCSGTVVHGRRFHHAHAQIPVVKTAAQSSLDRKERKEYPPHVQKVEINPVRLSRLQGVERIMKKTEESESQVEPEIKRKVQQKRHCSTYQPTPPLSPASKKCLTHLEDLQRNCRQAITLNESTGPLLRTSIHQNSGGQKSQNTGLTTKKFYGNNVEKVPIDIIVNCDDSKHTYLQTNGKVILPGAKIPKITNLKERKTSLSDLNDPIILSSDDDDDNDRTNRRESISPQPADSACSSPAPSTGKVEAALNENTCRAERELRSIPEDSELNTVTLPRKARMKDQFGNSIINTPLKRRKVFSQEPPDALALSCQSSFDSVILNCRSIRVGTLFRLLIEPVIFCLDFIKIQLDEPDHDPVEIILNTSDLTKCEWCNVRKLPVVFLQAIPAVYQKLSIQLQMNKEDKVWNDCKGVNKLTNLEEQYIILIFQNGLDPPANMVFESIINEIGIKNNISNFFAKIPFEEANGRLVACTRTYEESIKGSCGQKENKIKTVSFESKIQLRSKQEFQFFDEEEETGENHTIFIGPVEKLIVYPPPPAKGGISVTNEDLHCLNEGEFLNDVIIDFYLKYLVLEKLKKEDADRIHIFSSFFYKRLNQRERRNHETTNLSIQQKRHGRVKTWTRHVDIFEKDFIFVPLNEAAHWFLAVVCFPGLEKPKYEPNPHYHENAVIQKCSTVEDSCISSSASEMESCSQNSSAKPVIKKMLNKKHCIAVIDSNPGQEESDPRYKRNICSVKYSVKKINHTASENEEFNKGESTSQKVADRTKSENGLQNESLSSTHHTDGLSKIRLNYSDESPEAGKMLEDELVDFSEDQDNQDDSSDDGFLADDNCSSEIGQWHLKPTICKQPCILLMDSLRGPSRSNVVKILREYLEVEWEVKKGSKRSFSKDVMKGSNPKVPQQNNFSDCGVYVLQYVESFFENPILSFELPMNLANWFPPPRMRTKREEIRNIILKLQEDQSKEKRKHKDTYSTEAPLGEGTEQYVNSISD

[7] = biological target: T5, Sentrin-specific protease 7 (Homo sapiens, UniProt Q9BQF6); assay: SENP7 protease inhibitors, SAR follow-up, biochemical, luminescence (AID 504497); type: functional
T5 sequence (Q9BQF6 whole entry): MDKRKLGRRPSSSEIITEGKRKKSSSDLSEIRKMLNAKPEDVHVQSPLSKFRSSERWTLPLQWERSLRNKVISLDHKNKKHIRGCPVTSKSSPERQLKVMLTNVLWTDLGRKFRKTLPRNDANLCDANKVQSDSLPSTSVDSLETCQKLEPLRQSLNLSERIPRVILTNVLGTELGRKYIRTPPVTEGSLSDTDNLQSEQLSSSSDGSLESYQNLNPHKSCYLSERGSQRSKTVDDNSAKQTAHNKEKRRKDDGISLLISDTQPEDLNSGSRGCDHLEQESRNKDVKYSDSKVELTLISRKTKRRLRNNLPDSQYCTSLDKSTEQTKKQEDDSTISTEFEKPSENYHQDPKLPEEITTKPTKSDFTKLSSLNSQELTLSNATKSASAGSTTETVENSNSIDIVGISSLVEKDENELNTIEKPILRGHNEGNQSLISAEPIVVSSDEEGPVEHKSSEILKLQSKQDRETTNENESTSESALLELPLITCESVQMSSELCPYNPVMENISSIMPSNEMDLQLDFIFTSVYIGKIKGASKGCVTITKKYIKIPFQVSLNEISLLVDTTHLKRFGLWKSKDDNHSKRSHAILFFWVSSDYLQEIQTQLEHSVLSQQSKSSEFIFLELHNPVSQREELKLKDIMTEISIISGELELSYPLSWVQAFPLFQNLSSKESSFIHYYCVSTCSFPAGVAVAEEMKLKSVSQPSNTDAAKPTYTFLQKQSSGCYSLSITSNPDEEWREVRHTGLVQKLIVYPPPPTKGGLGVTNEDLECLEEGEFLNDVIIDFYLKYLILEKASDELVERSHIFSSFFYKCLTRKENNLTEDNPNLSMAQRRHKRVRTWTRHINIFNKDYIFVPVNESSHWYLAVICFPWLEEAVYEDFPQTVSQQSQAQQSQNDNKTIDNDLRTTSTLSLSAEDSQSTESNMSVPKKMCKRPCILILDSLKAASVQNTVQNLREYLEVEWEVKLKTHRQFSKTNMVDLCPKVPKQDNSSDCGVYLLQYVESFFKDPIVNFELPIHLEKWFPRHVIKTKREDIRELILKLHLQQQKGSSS

CCOC(=O)c1cccc(P(C)(C)=O)c1
inactive: EC50 (Insulin-degrading enzyme [1]) > 54.7 µM | EC50 (Insulin-degrading enzyme [2]) > 54.7 µM | IC50 (HEK293 [3]) > 89.1 µM | EC50 (HEK293 [4]) > 54.7 µM

NS(=O)(=O)c1ccc(CCNC(=O)c2sc3cc(Cl)ccc3c2Cl)cc1
inactive: IC50 [5] > 99 µM | IC50 (Caspase-3) > 99 µM | IC50 [6] > 99 µM | IC50 [7] > 99 µM
